Test results published in US20250011311A1, “AMIDO HETEROAROMATIC COMPOUNDS” (AstraZeneca AB, priority 2022, published 2025).
Read-outs that look alike come from different tables or passages of the source.

How the values were obtained:
[1] = biological target: recombinant 17bHSD13 (N2-K300) (Homo sapiens (Human), UniProt Q7Z5P4); assay: In Vitro 17bHSD13 Enzyme Assay; type: biochemical; conditions: 80 nM 17bHSD13, 0.5 mM NAD, 20 μM Estradiol, 2.5 h; estradiol to estrone by LC-MS/MS
In short: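 Human 17bHSD13 (N2-K300, 80 nM) with 0.5 mM NAD, 20 μM estradiol and varied compound in 50 mM Tris-Cl pH 7.4, 5 mM EDTA, 0.01% DDM. Estrone/(estrone+estradiol) ratio read by LC-MS/MS (APCI, positive MRM). Inhibition normalised to DMSO and a known-inhibitor control; IC50 from curve fit.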

[2] = biological target: recombinant 17bHSD4 (M1-N311) (Homo sapiens (Human), UniProt P51659); assay: In Vitro 17bHSD4 Enzyme Assay; type: biochemical; conditions: 40 nM 17bHSD4, 0.125 mM NAD, 15 μM Estradiol, 1.5 h; NADH fluorescence; read-out: 17HSD17b4 Enzyme assay IC50
Chain of recombinant 17bHSD4 (M1-N311) (P51659 1-311): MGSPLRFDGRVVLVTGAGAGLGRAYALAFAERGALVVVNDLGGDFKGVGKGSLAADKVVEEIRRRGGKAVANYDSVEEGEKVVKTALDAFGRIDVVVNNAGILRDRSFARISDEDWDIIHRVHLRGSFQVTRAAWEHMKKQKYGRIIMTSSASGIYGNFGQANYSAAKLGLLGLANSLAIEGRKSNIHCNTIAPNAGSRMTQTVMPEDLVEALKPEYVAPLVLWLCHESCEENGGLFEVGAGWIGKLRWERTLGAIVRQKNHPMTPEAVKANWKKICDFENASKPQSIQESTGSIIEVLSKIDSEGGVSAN

[3] = biological target: over expressed HSD17β13 in HEK293S cells (Homo sapiens (Human), UniProt Q7Z5P4); assay: In Vitro 17bHSD13 Cell Assay; type: cell-based
Chain of over expressed HSD17β13 in HEK293S cells (Q7Z5P4 20-300): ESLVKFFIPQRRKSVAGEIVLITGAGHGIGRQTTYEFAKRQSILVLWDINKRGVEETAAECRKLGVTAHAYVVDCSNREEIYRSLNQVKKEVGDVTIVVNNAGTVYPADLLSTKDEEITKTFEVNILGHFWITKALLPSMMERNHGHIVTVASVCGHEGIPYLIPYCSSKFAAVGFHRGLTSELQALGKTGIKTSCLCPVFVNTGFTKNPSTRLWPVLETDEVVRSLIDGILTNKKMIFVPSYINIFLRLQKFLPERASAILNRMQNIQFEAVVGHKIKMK
In short: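 HEK293S cells overexpressing HSD17β13 convert estradiol to estrone; product read by LC-MS/MS (APCI, positive MRM) as AUC ratio estrone/(estrone+estradiol). Effect normalised between DMSO and maximal inhibition by a known inhibitor control; IC50 from curve fit.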

human hepatocytes = assay: Assay A: Metabolic Stability in Human Hepatocytes; type: in vitro ADME; conditions: cryopreserved human hepatocytes, 10^6 viable cells/mL, 1 μM compound, 37° C.
Procedure: Assay A: Metabolic Stability in Human Hepatocytes
Hepatocyte metabolic stability was determined in accordance with the method described by Jacobson et al., An optimized automated assay for determination of metabolic stability using hepatocytes: assay validation, variance component analysis, and in vivo relevance. Assay Drug Dev Technol 2007, 5 (3), 403-415. DOI: 10.1089/adt.2007.059, which is incorporated herein by reference. Cryopreserved hepatocytes at a concentration of 10^6 viable cells/mL were used. After thawing, hepatocytes were incubated for 10 min to warm to 37° C. and test compounds, dissolved in acetonitrile, were added to give a final concentration of 1 μM. At 0.5, 5, 15, 30, 45, 60, 80, 100 and 120 min, the incubation system was mixed and 20 μL aliquots were transferred at each time point to wells in a separate plate filled with 80 μL MeCN to stop the reaction. The quenching plate was then vortexed followed by centrifugation, and supernatants were analyzed by LC-MS/MS. Peak areas were determined from extracted ion chromatograms, and the in vitro intrinsic clearance (in vitro CLint, in μL/min/10^6 cells) of parent compound was calculated from the slope in the regression analysis of the natural logarithm of parent concentration vs time curve.

CYP2C9 = CYP2C9 (Homo sapiens (Human), UniProt P11712); assay: Assay B: Cytochrome P450 Inhibition 2C9
Chain of CYP2C9 (P11712 whole entry): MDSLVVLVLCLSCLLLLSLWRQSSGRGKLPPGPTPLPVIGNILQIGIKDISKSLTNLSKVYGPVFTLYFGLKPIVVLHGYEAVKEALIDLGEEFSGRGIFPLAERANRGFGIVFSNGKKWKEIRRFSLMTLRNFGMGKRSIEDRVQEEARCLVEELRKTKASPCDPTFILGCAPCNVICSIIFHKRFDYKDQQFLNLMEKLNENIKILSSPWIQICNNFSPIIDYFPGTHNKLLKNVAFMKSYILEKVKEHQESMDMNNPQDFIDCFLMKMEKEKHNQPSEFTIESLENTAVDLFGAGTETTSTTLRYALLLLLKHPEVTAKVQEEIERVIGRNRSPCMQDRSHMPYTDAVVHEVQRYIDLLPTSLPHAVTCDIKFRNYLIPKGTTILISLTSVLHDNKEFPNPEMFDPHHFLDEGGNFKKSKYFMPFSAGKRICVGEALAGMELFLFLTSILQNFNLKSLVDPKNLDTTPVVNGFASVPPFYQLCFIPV
Procedure: A fluorescence-based method in 96-well format was used to determine the inhibition of 2C9 (Crespi, C. L. et al., Microtiter plate assays for inhibition of human, drug-metabolizing cytochromes P450. Anal Biochem 1997, 248 (1), 188-190. DOI: 10.1006/abio.1997.2145, which is incorporated herein by reference). The recombinant human enzymes used were prepared in house, except for CYP2D6 (CYPEX LTD, Dundee, UK). Different coumarin substrates, biotransformed into fluorescent metabolites, were used as probes for each individual CYP. A fluorescence plate reader (SPECTRAMAX GEMINIXS, MOLECULAR DEVICES, Sunnyvale, California, USA) was used to measure the levels of metabolites formed. A dilution series of the test substrates was prepared at eight different concentrations. For each CYP, a mixture of the enzyme, corresponding coumarin substrate, potassium phosphate buffer pH 7.4 and water (concentrations and volumes were CYP-dependent) were added to each well in a black 96-well plate. The test substrates at different concentrations were added. After 10 min pre-incubation, the co-factor NADPH was added to initiate the reaction. After 20-50 min (CYP and substrate-dependent) the reaction was terminated by addition of trisbase/MeCN (20:80). The plates were transferred to the fluorescence plate reader where the wavelengths were set individually for the different coumarin substrates and their respective fluorescent metabolite. The responses were exported to Excel where the IC50 curves were plotted (percent inhibition versus concentration) and IC50 values calculated for each test substrate and enzyme using XL-fit.

[4] = biological target: over expressed HSD17β9 in HEK293S cells (Homo sapiens (Human), UniProt Q92781); assay: In Vitro 17bHSD9 Cell Assay; type: cell-based
Chain of over expressed HSD17β9 in HEK293S cells (Q92781 whole entry): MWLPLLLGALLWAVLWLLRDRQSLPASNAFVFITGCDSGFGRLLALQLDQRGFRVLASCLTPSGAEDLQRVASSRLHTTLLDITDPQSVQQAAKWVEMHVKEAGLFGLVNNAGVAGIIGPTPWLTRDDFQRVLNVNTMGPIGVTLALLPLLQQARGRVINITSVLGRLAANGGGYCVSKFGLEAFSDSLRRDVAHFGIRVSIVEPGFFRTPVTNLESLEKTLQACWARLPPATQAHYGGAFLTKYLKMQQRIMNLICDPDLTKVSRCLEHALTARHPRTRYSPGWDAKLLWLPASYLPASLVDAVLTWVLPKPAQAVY
In short: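 HEK293S cells overexpressing HSD17β9 were plated at 10K cells/well in DMEM + 10% FBS and cultured 18 h. Retinol-to-retinal conversion in media was quantified by LC-MS/MS (MRM) as retinal/(retinal + retinol). IC50 was fitted after normalisation to DMSO and full inhibition by a reference inhibitor.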

[5] = biological target: human CB1 receptor expressed in transfected CHO cells (Homo sapiens (Human), UniProt P21554); assay: Assay C: CB1 Agonism Assay; type: cell-based; conditions: agonist activity, cAMP HTRF, read-out: Assay C: CB1 Hu CHO cAMP TRF Ag CR GMean EC50
Chain of human CB1 receptor expressed in transfected CHO cells (P21554 whole entry): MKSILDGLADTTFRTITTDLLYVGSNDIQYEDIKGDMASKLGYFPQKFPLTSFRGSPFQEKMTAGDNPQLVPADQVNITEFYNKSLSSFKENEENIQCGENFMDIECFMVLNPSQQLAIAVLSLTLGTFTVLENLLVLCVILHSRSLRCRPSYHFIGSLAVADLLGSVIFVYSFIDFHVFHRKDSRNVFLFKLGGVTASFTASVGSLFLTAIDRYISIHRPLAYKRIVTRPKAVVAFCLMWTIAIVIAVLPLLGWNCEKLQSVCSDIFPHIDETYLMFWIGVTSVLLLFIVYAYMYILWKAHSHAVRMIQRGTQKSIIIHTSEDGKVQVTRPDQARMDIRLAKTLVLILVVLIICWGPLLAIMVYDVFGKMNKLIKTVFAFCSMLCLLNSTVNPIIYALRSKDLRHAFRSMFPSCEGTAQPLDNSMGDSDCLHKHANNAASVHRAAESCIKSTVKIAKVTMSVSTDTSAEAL
Procedure: Assay C: CB1 Agonism Assay
Evaluation of the agonist activity of compounds at the human CB1 receptor expressed in transfected CHO cells, determined by measuring their effects on cAMP modulation using the HTRF detection method.
Thereafter, the adenylyl cyclase activator NKH 477 is added at a final concentration of 3 μM. Following 20 min incubation at 37° C., the cells are lysed and the fluorescence acceptor (D2-labeled cAMP) and fluorescence donor (anti-cAMP antibody labeled with europium cryptate) are added. After 60 min at room temperature, the fluorescence transfer is measured at gex=337 nm and gem=620 and 665 nm using a microplate reader (RUBYSTAR, BMG). The cAMP concentration is determined by dividing the signal measured at 665 nm by that measured at 620 nm (ratio). The results are expressed as a percent of the control response to 30 nM CP 55940. The standard reference agonist is CP 55940, which is tested in each experiment at several concentrations to generate a concentration-response curve from which its EC50 value is calculated.
Bibliographic reference Felder, C. C. et al., (1995), Comparison of the pharmacology and signal transduction of the human cannabinoid CB1 and CB2 receptors, Mol. Pharmacol., 48: 443, which is incorporated herein by reference.

[6] = HEK293S cells over expressing HSD17β13, estradiol to estrone conversion, 18 h, LC-MS/MS, read-out: 17bHSD1713 Cell assay IC50
[7] = HEK293S cells over expressing HSD17β9, retinol to retinal conversion, 18 h, LC-MS/MS, read-out: 17bHSD9 Cell assay IC50

Chain of recombinant 17bHSD13 (N2-K300) (Q7Z5P4 2-300): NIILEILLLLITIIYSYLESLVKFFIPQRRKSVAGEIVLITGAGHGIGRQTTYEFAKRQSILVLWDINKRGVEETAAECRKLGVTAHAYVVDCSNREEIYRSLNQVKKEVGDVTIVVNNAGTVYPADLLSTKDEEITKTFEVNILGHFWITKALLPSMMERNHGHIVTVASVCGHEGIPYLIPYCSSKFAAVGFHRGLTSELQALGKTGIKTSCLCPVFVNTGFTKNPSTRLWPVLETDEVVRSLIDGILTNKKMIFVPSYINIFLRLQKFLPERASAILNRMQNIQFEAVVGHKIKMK

N#Cc1ccc(C2CCN(C(=O)c3noc(-c4cc(F)c(F)c(O)c4F)n3)CC2)cc1 [Example 56, 4-(1-(5-(2,4,5-Trifluoro-3-hydroxyphenyl)-1,2,4-oxadiazole-3-carbonyl)piperidin-4-yl)benzonitrile]
IC50 [1]: 0.142 µM | IC50 [2]: 23.5 µM | IC50 [3, 6]: 1.36 µM | Assay A: Human Heps Met Clint GMean CLint (μl/min/1E6) (human hepatocytes): 5.9 μl/min/1E6 | IC50 (CYP2C9): 5.1 µM

Cn1nc(C2CC2)c2c1CCN(C(=O)c1noc(-c3cc(F)c(F)c(O)c3F)c1C#N)C2 [Example 20, 3-(3-Cyclopropyl-1-methyl-4,5,6,7-tetrahydro-1H-pyrazolo[4,3-c]pyridine-5-carbonyl)-5-(2,4,5-trifluoro-3-hydroxyphenyl)isoxazole-4-carbonitrile]
IC50 [1]: 0.063 µM | IC50 [3, 6]: 2.4 µM | IC50 [4, 7]: 29.4 µM | Assay A: Human Heps Met Clint GMean CLint (μl/min/1E6) (human hepatocytes): 16.8 μl/min/1E6 | IC50 (CYP2C9): 0.4 µM

N#Cc1ccc(N2CCN(C(=O)c3noc(-c4cc(F)c(F)c(O)c4F)n3)CC2)cc1 [Example 83, 4-(4-(5-(2,4,5-Trifluoro-3-hydroxyphenyl)-1,2,4-oxadiazole-3-carbonyl)piperazin-1-yl)benzonitrile]
IC50 [1]: 0.102 µM | IC50 [2]: 14.4 µM | IC50 [3, 6]: 2.88 µM | Assay A: Human Heps Met Clint GMean CLint (μl/min/1E6) (human hepatocytes): 11.8 μl/min/1E6 | IC50 (CYP2C9): 6.2 µM

N#Cc1ccccc1N1CCN(C(=O)c2noc(-c3cc(F)c(F)c(O)c3F)n2)CC1 [Example 82, 2-(4-(5-(2,4,5-Trifluoro-3-hydroxyphenyl)-1,2,4-oxadiazole-3-carbonyl)piperazin-1-yl)benzonitrile]
IC50 [1]: 0.062 µM | IC50 [3, 6]: 0.45 µM | IC50 [4, 7]: > 50 µM | Assay A: Human Heps Met Clint GMean CLint (μl/min/1E6) (human hepatocytes): 15.4 μl/min/1E6 | IC50 (CYP2C9): 4.3 µM

O=C(c1noc(-c2cc(F)c(F)c(O)c2F)n1)N1CC(c2ccccc2)C1 [Example 60, (3-Phenylazetidin-1-yl)(5-(2,4,5-trifluoro-3-hydroxyphenyl)-1,2,4-oxadiazol-3-yl)methanone]
IC50 [1]: 0.137 µM | IC50 [2]: 11 µM | IC50 [3, 6]: 2.98 µM | Assay A: Human Heps Met Clint GMean CLint (μl/min/1E6) (human hepatocytes): 13.8 μl/min/1E6 | IC50 (CYP2C9): 3.9 µM

O=C(c1noc(-c2cc(F)c(F)c(O)c2F)n1)N1CCC(OCc2ccccc2)C1 (stereo not drawn) [Example 97, (3-(Benzyloxy)pyrrolidin-1-yl)(5-(2,4,5-trifluoro-3-hydroxyphenyl)-1,2,4-oxadiazol-3-yl)methanone]
IC50 [1]: 0.122 µM | IC50 [2]: 26.2 µM | IC50 [3, 6]: 0.89 µM | Assay A: Human Heps Met Clint GMean CLint (μl/min/1E6) (human hepatocytes): 46.6 μl/min/1E6 | IC50 (CYP2C9): 1.8 µM

O=C(c1nnc(-c2ccc(F)c(O)c2)o1)N1CCOC2(CCC2)C1 [Example 90, (5-(4-Fluoro-3-hydroxyphenyl)-1,3,4-oxadiazol-2-yl)(5-oxa-8-azaspiro[3.5]nonan-8-yl)methanone]
IC50 [1]: 0.626 µM | IC50 [2]: > 50 µM | IC50 [3, 6]: 1.69 µM | Assay A: Human Heps Met Clint GMean CLint (μl/min/1E6) (human hepatocytes): >300 μl/min/1E6 | IC50 (CYP2C9): > 30 µM

O=C(c1noc(-c2cc(F)c(F)c(O)c2F)n1)N1CCN(c2ccccn2)CC1 [Example 58, (4-(Pyridin-2-yl)piperazin-1-yl)(5-(2,4,5-trifluoro-3-hydroxyphenyl)-1,2,4-oxadiazol-3-yl)methanone]
IC50 [1]: 0.103 µM | IC50 [2]: 20.6 µM | IC50 [3, 6]: 1.08 µM | Assay A: Human Heps Met Clint GMean CLint (μl/min/1E6) (human hepatocytes): 24.6 μl/min/1E6 | IC50 (CYP2C9): 7.3 µM

CC(C)(C)N(Cc1ccccn1)C(=O)c1noc(-c2cc(F)c(F)c(O)c2F)c1C#N [Example 19, N-(tert-Butyl)-4-cyano-N-(pyridin-2-ylmethyl)-5-(2,4,5-trifluoro-3-hydroxyphenyl)isoxazole-3-carboxamide]
IC50 [1]: 0.108 µM | IC50 [2]: 19.6 µM | IC50 [3, 6]: 2.01 µM | Assay A: Human Heps Met Clint GMean CLint (μl/min/1E6) (human hepatocytes): 4.3 μl/min/1E6 | IC50 (CYP2C9): 1 µM

N#CC1(c2ccccc2)CCN(C(=O)c2noc(-c3cc(F)c(F)c(O)c3F)n2)CC1 [Example 80, 4-Phenyl-1-(5-(2,4,5-trifluoro-3-hydroxyphenyl)-1,2,4-oxadiazole-3-carbonyl)piperidine-4-carbonitrile]
IC50 [1]: 0.111 µM | IC50 [2]: 21.9 µM | IC50 [3]: 0.46 µM | IC50 [4]: 8.2 µM | Assay A: Human Heps Met Clint GMean CLint (μl/min/1E6) (human hepatocytes): 9.8 μl/min/1E6 | IC50 (CYP2C9): 3.3 µM

N#Cc1c(C(=O)N2CC[C@@H](c3ccc(Cl)cc3)C2)noc1-c1cc(F)c(F)c(O)c1F [Example 21, (S)-3-(3-(4-Chlorophenyl)pyrrolidine-1-carbonyl)-5-(2,4,5-trifluoro-3-hydroxyphenyl)isoxazole-4-carbonitrile]
IC50 [1]: 0.032 µM | IC50 [3, 6]: 0.66 µM | IC50 [4, 7]: 22.6 µM | Assay A: Human Heps Met Clint GMean CLint (μl/min/1E6) (human hepatocytes): 13.3 μl/min/1E6 | IC50 (CYP2C9): 0.2 µM

N#Cc1ccc2c(c1)CN(C(=O)c1noc(-c3cc(F)c(F)c(O)c3F)n1)C2 [Example 106, 2-(5-(2,4,5-Trifluoro-3-hydroxyphenyl)-1,2,4-oxadiazole-3-carbonyl)isoindoline-5-carbonitrile]
IC50 [1]: 0.516 µM | IC50 [3, 6]: 1.22 µM | IC50 [4, 7]: > 50 µM | Assay A: Human Heps Met Clint GMean CLint (μl/min/1E6) (human hepatocytes): 16.1 μl/min/1E6 | IC50 (CYP2C9): 5.9 µM

N#Cc1c(C(=O)N2CCN(c3ccccn3)CC2)noc1-c1cc(F)c(F)c(O)c1F [Example 15, 3-(4-(Pyridin-2-yl)piperazine-1-carbonyl)-5-(2,4,5-trifluoro-3-hydroxyphenyl)isoxazole-4-carbonitrile]
IC50 [1]: 0.489 µM | IC50 [2]: 37.7 µM | IC50 [3, 6]: 0.97 µM | Assay A: Human Heps Met Clint GMean CLint (μl/min/1E6) (human hepatocytes): 59.8 μl/min/1E6 | IC50 (CYP2C9): 2.1 µM

N#Cc1cccc(C2CN(C(=O)c3noc(-c4cc(F)c(F)c(O)c4F)n3)C2)c1 [Example 85, 3-(1-(5-(2,4,5-Trifluoro-3-hydroxyphenyl)-1,2,4-oxadiazole-3-carbonyl)azetidin-3-yl)benzonitrile]
IC50 [1]: 0.317 µM | IC50 [2]: 21.7 µM | IC50 [3, 6]: 3.38 µM | Assay A: Human Heps Met Clint GMean CLint (μl/min/1E6) (human hepatocytes): 14.1 μl/min/1E6 | EC50 [5]: 9.3 µM | IC50 (CYP2C9): 3.4 µM
